In brackets after ≈: the same amount, converted by molar mass.
Tests used:
Assay type in all cases: functional
[1] = system: Streptococcus pneumoniae; test: Bactericidal activity against Streptococcus pneumoniae PU 09 harboring mef gene incubated for 16 to 20 hrs by CLSI based broth microdilution method; settings: time 16-20 hrs
[2] = system: Staphylococcus aureus; test: Bactericidal activity against methicillin-resistant Staphylococcus aureus PU 32 harboring i-ermA gene incubated for 16 to 20 hrs by CLSI based broth microdilution method; settings: time 16-20 hrs
[3] = system: Streptococcus pneumoniae; test: Selectivity ratio of MBC for Streptococcus pneumoniae ATCC 49619 to MIC for Streptococcus pneumoniae ATCC 49619
[4] = system: Streptococcus pyogenes; test: Antibacterial activity against Streptococcus pyogenes 01-968 harboring i-ermB gene incubated for 16 to 20 hrs by CLSI based broth microdilution method; settings: time 16-20 hrs
[5] = system: Streptococcus pneumoniae; test: Selectivity ratio of MBC for Streptococcus pneumoniae PU 09 harboring mef gene to MIC for Streptococcus pneumoniae PU 09 harboring mef gene
[6] = system: Staphylococcus aureus; test: Selectivity ratio of MBC for methicillin-resistant Staphylococcus aureus PU 32 harboring i-ermA gene to MIC for methicillin-resistant Staphylococcus aureus PU 32 harboring i-ermA gene
[7] = system: Streptococcus pneumoniae; test: Selectivity ratio of MBC for Streptococcus pneumoniae 07P390 harboring c-erm gene to MIC for Streptococcus pneumoniae 07P390 harboring c-erm gene
[8] = system: Streptococcus pneumoniae; test: Antibacterial activity against Streptococcus pneumoniae 07P390 harboring c-erm gene incubated for 16 to 20 hrs by CLSI based broth microdilution method; settings: time 16-20 hrs
[9] = system: Staphylococcus aureus; test: Antibacterial activity against methicillin-resistant Staphylococcus aureus PU 20 harboring c-ermA gene incubated for 16 to 20 hrs by CLSI based broth microdilution method; settings: time 16-20 hrs
[10] = system: Staphylococcus aureus; test: Antibacterial activity against methicillin-resistant Staphylococcus aureus PU 32 harboring i-ermA gene incubated for 16 to 20 hrs by CLSI based broth microdilution method; settings: time 16-20 hrs
[11] = system: Streptococcus pneumoniae; test: Antibacterial activity against Streptococcus pneumoniae PU 09 harboring mef gene incubated for 16 to 20 hrs by CLSI based broth microdilution method; settings: time 16-20 hrs
[12] = system: Streptococcus pneumoniae; test: Bactericidal activity against Streptococcus pneumoniae 07P390 harboring c-erm gene incubated for 16 to 20 hrs by CLSI based broth microdilution method; settings: time 16-20 hrs
[13] = system: Streptococcus pneumoniae; test: Antibacterial activity against Streptococcus pneumoniae ATCC 49619 incubated for 16 to 20 hrs by CLSI based broth microdilution method; settings: time 16-20 hrs
[14] = system: Haemophilus influenzae; test: Bactericidal activity against Haemophilus influenzae ATCC 49247 incubated for 16 to 20 hrs by CLSI based broth microdilution method; settings: time 16-20 hrs
[15] = system: Staphylococcus aureus; test: Bactericidal activity against methicillin-resistant Staphylococcus aureus PU 20 harboring c-ermA gene incubated for 16 to 20 hrs by CLSI based broth microdilution method; settings: time 16-20 hrs
[16] = system: Haemophilus influenzae; test: Selectivity ratio of MBC for Haemophilus influenzae ATCC 49247 to MIC for Haemophilus influenzae ATCC 49247
[17] = system: Haemophilus influenzae; test: Antibacterial activity against Haemophilus influenzae ATCC 49247 incubated for 16 to 20 hrs by CLSI based broth microdilution method; settings: time 16-20 hrs
[18] = system: Streptococcus pyogenes; test: Selectivity ratio of MBC for Streptococcus pyogenes 01-968 harboring i-ermB gene to MIC for Streptococcus pyogenes 01-968 harboring i-ermB gene
[19] = system: Streptococcus pneumoniae; test: Bactericidal activity against Streptococcus pneumoniae ATCC 49619 incubated for 16 to 20 hrs by CLSI based broth microdilution method; settings: time 16-20 hrs
[20] = system: Streptococcus pyogenes; test: Bactericidal activity against Streptococcus pyogenes 01-968 harboring i-ermB gene incubated for 16 to 20 hrs by CLSI based broth microdilution method; settings: time 16-20 hrs

Row | Compound | MBC [1] [µg/mL] | MBC [2] [µg/mL] | Selectivity ratio [3] | MIC [4] [µg/mL] | Selectivity ratio [5] | Selectivity ratio [6] | Selectivity ratio [7] | MIC [8] [µg/mL] | MIC [9] [µg/mL] | MIC [10] [µg/mL] | MIC [11] [µg/mL] | MBC [12] [µg/mL] | MIC [13] [µg/mL] | MBC [14] [µg/mL] | MBC [15] [µg/mL] | Selectivity ratio [16] | MIC [17] [µg/mL] | Selectivity ratio [18] | MBC [19] [µg/mL] | MBC [20] [µg/mL]
1 | CC[C@H]1OC(=O)[C@H](C)[C@@H](OC(=O)CCNCCCCNc2cc3c(cc2F)c(=O)c(C(=O)O)cn3C2CC2)[C@H](C)[C@@H](O[C@@H]2O[C@H](C)C[C@H](N(C)C)[C@H]2O)[C@](C)(OC)C[C@@H](C)/C(=N\OCCCc2cncc(C(=O)NC)c2)[C@H](C)[C@H]2OC(=O)O[C@@]21C | 0.03 (≈ 0.0251 µM) | 32 (≈ 26.8 µM) | >=1 | 0.25 (≈ 0.209 µM) | >=4 | 1 | 4 | 0.03 (≈ 0.0251 µM) | > 256 | 32 (≈ 26.8 µM) | ≤ 0.008 | 0.12 (≈ 0.1 µM) | ≤ 0.008 | 16 (≈ 13.4 µM) | > 256 | 2 | 8 (≈ 6.7 µM) | >8 | 0.008 (≈ 0.0067 µM) | > 2
2 | CC[C@H]1OC(=O)[C@H](C)[C@@H](OC(=O)CCNCCCCNc2cc3c(cc2F)c(=O)c(C(=O)O)cn3C2CC2)[C@H](C)[C@@H](O[C@@H]2O[C@H](C)C[C@H](N(C)C)[C@H]2O)[C@](C)(OC)C[C@@H](C)/C(=N\OCC#Cc2ccc3c(c2)c(=O)c(C(N)=O)cn3CC)[C@H](C)[C@H]2OC(=O)O[C@@]21C | 0.25 (≈ 0.197 µM) | > 256 | 1 | 1 (≈ 0.787 µM) | 1 | – | 4 | 2 (≈ 1.57 µM) | > 256 | 128 (≈ 101 µM) | 0.25 (≈ 0.197 µM) | 8 (≈ 6.3 µM) | 0.12 (≈ 0.0945 µM) | 8 (≈ 6.3 µM) | > 256 | 1 | 8 (≈ 6.3 µM) | >8 | 0.12 (≈ 0.0945 µM) | > 8
3 | CC[C@H]1OC(=O)[C@H](C)C(=O)[C@H](C)[C@@H](O[C@@H]2O[C@H](C)C[C@H](N(C)C)[C@H]2O)[C@](C)(OC)C[C@@H](C)C(=O)[C@H](C)[C@H]2N(CCCCn3cnc(-c4cccnc4)c3)C(=O)O[C@]12C [TELITHROMYCIN] | 4 (≈ 4.93 µM) | 1 (≈ 1.23 µM) | 4 | 0.031 (≈ 0.0382 µM) | 8 | 4 | 8 | 0.125 (≈ 0.154 µM) | > 256 | – | 0.5 (≈ 0.616 µM) | 1 (≈ 1.23 µM) | 0.031 (≈ 0.0382 µM) | – | – | – | – | 4 | 0.125 (≈ 0.154 µM) | 0.125 (≈ 0.154 µM)
4 | C#CCO/N=C1\[C@H](C)C[C@@](C)(OC)[C@H](O[C@@H]2O[C@H](C)C[C@H](N(C)C)[C@H]2O)[C@@H](C)[C@H](OC(=O)CCN2CCN(c3cc4c(cc3F)c(=O)c(C(=O)O)cn4C3CC3)CC2)[C@@H](C)C(=O)O[C@H](CC)[C@@]2(C)OC(=O)O[C@@H]2[C@H]1C | 2 (≈ 1.9 µM) | > 256 | 1 | 4 (≈ 3.79 µM) | 2 | >4 | – | 32 (≈ 30.4 µM) | 256 (≈ 243 µM) | 64 (≈ 60.7 µM) | 1 (≈ 0.949 µM) | > 32 | 0.5 (≈ 0.474 µM) | 1 (≈ 0.949 µM) | > 256 | 1 | 1 (≈ 0.949 µM) | 2 | 0.5 (≈ 0.474 µM) | 8 (≈ 7.59 µM)
5 | CC[C@H]1OC(=O)[C@H](C)[C@@H](OC(=O)CCNCCCCNc2cc3c(cc2F)c(=O)c(C(=O)O)cn3C2CC2)[C@H](C)[C@@H](O[C@@H]2O[C@H](C)C[C@H](N(C)C)[C@H]2O)[C@](C)(OC)C[C@@H](C)/C(=N\OCC#Cc2cncc(C(=O)NC3CC3)c2)[C@H](C)[C@H]2OC(=O)O[C@@]21C | 0.008 (≈ 0.00658 µM) | 64 (≈ 52.6 µM) | >=1 | 0.06 (≈ 0.0493 µM) | – | 2 | >8 | 0.03 (≈ 0.0247 µM) | 128 (≈ 105 µM) | 32 (≈ 26.3 µM) | ≤ 0.008 | > 0.25 | ≤ 0.008 | 8 (≈ 6.58 µM) | > 256 | 1 | 8 (≈ 6.58 µM) | >8 | 0.008 (≈ 0.00658 µM) | > 0.5
6 | CC[C@H]1OC(=O)[C@H](C)[C@@H](O[C@H]2C[C@@](C)(OC)[C@@H](O)[C@H](C)O2)[C@H](C)[C@@H](O[C@@H]2O[C@H](C)C[C@H](N(C)C)[C@H]2O)[C@](C)(OC)C[C@@H](C)C(=O)[C@H](C)[C@@H](O)[C@]1(C)O [CLARITHROMYCIN] | 32 (≈ 42.8 µM) | – | 4 | 8 (≈ 10.7 µM) | 8 | >8 | – | > 32 | > 256 | – | – | – | 0.062 (≈ 0.0829 µM) | – | – | 2 | – | >8 | 0.25 (≈ 0.334 µM) | > 64
7 | CC[C@H]1OC(=O)[C@H](C)[C@@H](OC(=O)CCN2CCN(c3cc4c(cc3F)c(=O)c(C(=O)O)cn4C3CC3)CC2)[C@H](C)[C@@H](O[C@@H]2O[C@H](C)C[C@H](N(C)C)[C@H]2O)[C@](C)(OC)C[C@@H](C)/C(=N\OC)[C@H](C)[C@H]2OC(=O)O[C@@]21C | 2 (≈ 1.94 µM) | > 256 | 1 | 1 (≈ 0.971 µM) | 4 | >4 | – | > 32 | 256 (≈ 248 µM) | 64 (≈ 62.1 µM) | 0.5 (≈ 0.485 µM) | – | 0.25 (≈ 0.243 µM) | 2 (≈ 1.94 µM) | > 256 | 2 | 1 (≈ 0.971 µM) | 8 | 0.25 (≈ 0.243 µM) | 8 (≈ 7.77 µM)
8 | CC[C@H]1OC(=O)[C@H](C)[C@@H](OC(=O)CCNCCCCNc2cc3c(cc2F)c(=O)c(C(=O)O)cn3C2CC2)[C@H](C)[C@@H](O[C@@H]2O[C@H](C)C[C@H](N(C)C)[C@H]2O)[C@](C)(OC)C[C@@H](C)/C(=N\OCC#Cc2cncc(C(N)=O)c2)[C@H](C)[C@H]2OC(=O)O[C@@]21C | 0.008 (≈ 0.0068 µM) | 128 (≈ 109 µM) | >=1 | 0.06 (≈ 0.051 µM) | – | 2 | >8 | 0.06 (≈ 0.051 µM) | 128 (≈ 109 µM) | 64 (≈ 54.4 µM) | ≤ 0.008 | > 0.5 | ≤ 0.008 | 2 (≈ 1.7 µM) | > 256 | 1 | 2 (≈ 1.7 µM) | >8 | 0.008 (≈ 0.0068 µM) | > 0.5
9 | CC[C@H]1OC(=O)[C@H](C)[C@@H](OC(=O)CCNCCCCNc2cc3c(cc2F)c(=O)c(C(=O)O)cn3C2CC2)[C@H](C)[C@@H](O[C@@H]2O[C@H](C)C[C@H](N(C)C)[C@H]2O)[C@](C)(OC)C[C@@H](C)/C(=N\OC/C=C/c2cncc(C(N)=O)c2)[C@H](C)[C@H]2OC(=O)O[C@@]21C | 0.008 (≈ 0.00679 µM) | 32 (≈ 27.2 µM) | >=1 | 0.25 (≈ 0.212 µM) | – | 1 | 2 | 0.12 (≈ 0.102 µM) | > 256 | 32 (≈ 27.2 µM) | ≤ 0.008 | 0.25 (≈ 0.212 µM) | ≤ 0.008 | 16 (≈ 13.6 µM) | > 256 | 1 | 16 (≈ 13.6 µM) | >8 | 0.008 (≈ 0.00679 µM) | > 2
10 | CC[C@H]1OC(=O)[C@H](C)[C@@H](OC(=O)CCN2CCN(c3cc4c(cc3F)c(=O)c(C(=O)O)cn4C3CC3)CC2)[C@H](C)[C@@H](O[C@@H]2O[C@H](C)C[C@H](N(C)C)[C@H]2O)[C@](C)(OC)C[C@@H](C)/C(=N\OCC#Cc2cncc(C(N)=O)c2)[C@H](C)[C@H]2OC(=O)O[C@@]21C | 1 (≈ 0.852 µM) | > 64 | 2 | 0.5 (≈ 0.426 µM) | 2 | >8 | >8 | 4 (≈ 3.41 µM) | > 256 | 8 (≈ 6.81 µM) | 0.5 (≈ 0.426 µM) | > 32 | 0.25 (≈ 0.213 µM) | 8 (≈ 6.81 µM) | – | 1 | 8 (≈ 6.81 µM) | 2 | 0.5 (≈ 0.426 µM) | 1 (≈ 0.852 µM)

From ChEMBL document CHEMBL5608186, “Design, synthesis and structure-activity relationships of novel non-ketolides: 9-Oxime clarithromycin featured with seven-to thirteen-atom-length diamine linkers at 3-OH” (Eur J Med Chem, 2024)
